Assay results taken from article PMC6985722 (Antimicrobial Agents and Chemotherapy, 2020).

What was measured:
[1] = test system: RSV-B isolates; design: method as in ref 16 = [16]; 16. Cockerill GS , Bedernjak A , Brookes D , Dowey R , Harland R , Johnson SM , Mathews N , Paradowski M , Peeples M , Scott C , Steadman M , Taylor G , Thom M , Thomas E , Ward SE , Watterson D , You; conditions: n = 16 isolates; cited from earlier work
[2] = 76 healthy adult males; single and multiple ascending dose; cited from earlier work
[3] = test system: RSV-A (panel of 10 clinical strains); experiment: In vitro susceptibility of RSV by plaque assay, RSV-A; format: cell-based; conditions: human respiratory syncytial virus
Method: Previous RSV challenge studies achieved antiviral efficacy with peripheral blood trough exposure levels over 3× the protein binding-adjusted in vitro EC90 ([12]). Based on the phase 1 PK data, this level of exposure was predicted to be achieved on or after the first dose in the majority of subjects with a 200-mg dose and to be met or exceeded on or after the first dose in all subjects with a 350-mg dose. The in vitro EC90 was determined using a panel of clinical isolates of RSV (Table S7).
EC50 range (nM) EC90 range (nM)
EC50 and EC 90 were determined by plaque assay.
EC50, 50% effective concentration; EC90, 90% effective concentration; RSV, respiratory

[4] = preclinical evaluations, including juvenile toxicology studies; cited from earlier work

Compound: NCc1ccc2c(c1)nc(CN1C(=O)C3(CC3)c3ccc(F)cc31)n2CCCC(F)(F)F [RV521]
- IC50 [1]: 1 nM
- Tolerability [2]: well tolerated
- EC50 ([3]; read-out: EC50 range): 0.3 to 1 nM
- EC90 ([3]; read-out: EC90 range): 2.5 to 5.6 nM
- Safety profile [4]: good safety profile
